Measured values taken from ChEMBL document CHEMBL5523747, “Discovery of a Series of Orally Bioavailable Androgen Receptor Degraders for the Treatment of Prostate Cancer” (J Med Chem, 2024).

Target: T1, Protein cereblon/Androgen receptor (Homo sapiens, UniProt P10275+Q96SW2)
Assay: PROTAC activity at AR/CRBN in human LNCaP cells assessed as protein degradation measured after 24 hrs incubation by imaging IF assay
Format: cell-based
Conditions: not given
Target sequence in this assay (P10275 whole entry): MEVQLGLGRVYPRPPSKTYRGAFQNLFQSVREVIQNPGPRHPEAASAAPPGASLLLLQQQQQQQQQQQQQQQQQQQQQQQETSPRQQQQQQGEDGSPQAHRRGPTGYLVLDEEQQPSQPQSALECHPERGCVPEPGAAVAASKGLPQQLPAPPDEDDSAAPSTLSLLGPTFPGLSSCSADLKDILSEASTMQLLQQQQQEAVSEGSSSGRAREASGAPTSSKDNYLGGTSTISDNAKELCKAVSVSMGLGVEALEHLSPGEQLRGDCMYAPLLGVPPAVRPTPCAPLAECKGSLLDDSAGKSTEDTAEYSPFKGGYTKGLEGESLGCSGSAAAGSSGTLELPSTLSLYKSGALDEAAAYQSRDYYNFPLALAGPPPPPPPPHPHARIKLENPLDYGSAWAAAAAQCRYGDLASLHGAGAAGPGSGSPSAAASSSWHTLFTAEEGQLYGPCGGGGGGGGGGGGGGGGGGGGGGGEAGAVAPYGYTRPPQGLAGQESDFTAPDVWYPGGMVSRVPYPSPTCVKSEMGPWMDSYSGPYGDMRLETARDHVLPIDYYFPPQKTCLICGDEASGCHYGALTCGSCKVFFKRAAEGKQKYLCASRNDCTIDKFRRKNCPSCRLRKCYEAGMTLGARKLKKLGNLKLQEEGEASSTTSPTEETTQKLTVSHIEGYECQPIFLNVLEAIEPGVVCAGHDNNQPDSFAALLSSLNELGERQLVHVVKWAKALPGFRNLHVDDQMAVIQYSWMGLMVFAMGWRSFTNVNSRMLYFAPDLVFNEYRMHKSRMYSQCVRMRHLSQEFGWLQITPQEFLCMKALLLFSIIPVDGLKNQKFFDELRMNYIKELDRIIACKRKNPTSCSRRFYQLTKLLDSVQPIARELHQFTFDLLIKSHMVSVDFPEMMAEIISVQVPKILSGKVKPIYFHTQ
Target sequence in this assay (Q96SW2 whole entry): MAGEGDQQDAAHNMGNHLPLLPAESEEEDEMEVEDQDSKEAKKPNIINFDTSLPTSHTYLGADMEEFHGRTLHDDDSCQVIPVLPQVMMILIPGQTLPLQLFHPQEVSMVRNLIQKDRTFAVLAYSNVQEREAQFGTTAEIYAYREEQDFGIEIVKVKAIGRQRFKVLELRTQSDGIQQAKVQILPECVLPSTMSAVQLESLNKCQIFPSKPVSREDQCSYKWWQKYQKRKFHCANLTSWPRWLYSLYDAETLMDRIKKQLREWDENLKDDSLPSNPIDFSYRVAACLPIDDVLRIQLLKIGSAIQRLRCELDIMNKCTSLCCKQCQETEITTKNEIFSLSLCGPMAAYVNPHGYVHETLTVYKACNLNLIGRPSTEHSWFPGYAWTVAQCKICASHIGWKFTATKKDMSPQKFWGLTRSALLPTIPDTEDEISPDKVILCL

DC50	SMILES
22 nM	N#Cc1ccc(N2CCC(c3ccc(OCCCCN4CCN(c5ccc6c(c5)C(=O)N(C5CCC(=O)NC5=O)C6=O)CC4)cc3)CC2)cc1C(F)(F)F (stereo not drawn)
16 nM	N#Cc1ccc(N2CCC(c3ccc(OCCCN4CCN(c5ccc6c(c5)CN(C5CCC(=O)NC5=O)C6=O)CC4)cc3)CC2)cc1C(F)(F)F (stereo not drawn)

SMILES	DC50
COc1cc(N2CCN(CC3CCN(c4ccc(C5CCN(c6ccc(C#N)c(C(F)(F)F)c6)CC5)cc4)CC3)CC2)cc2c1C(=O)N(C1CCC(=O)NC1=O)C2 (stereo not drawn)	26 nM

Target: T1, Protein cereblon/Androgen receptor
Assay: PROTAC activity at AR/CRBN in human LNCaP cells assessed as maximal protein degradation measured after 24 hrs incubation by imaging IF assay relative to control
Format: cell-based
Conditions: not given
Target sequence in this assay (P10275 whole entry, looked up): as the sequence (P10275 whole entry) above
Target sequence in this assay (Q96SW2 whole entry, looked up): as the sequence (Q96SW2 whole entry) above

Emax	SMILES
100%	N#Cc1ccc(N2CCC(c3ccc(OCCCCN4CCN(c5ccc6c(c5)C(=O)N(C5CCC(=O)NC5=O)C6=O)CC4)cc3)CC2)cc1C(F)(F)F (stereo not drawn)
79%	N#Cc1ccc(N2CCC(c3ccc(OCCCN4CCN(c5ccc6c(c5)CN(C5CCC(=O)NC5=O)C6=O)CC4)cc3)CC2)cc1C(F)(F)F (stereo not drawn)

SMILES	Emax
COc1cc(N2CCN(CC3CCN(c4ccc(C5CCN(c6ccc(C#N)c(C(F)(F)F)c6)CC5)cc4)CC3)CC2)cc2c1C(=O)N(C1CCC(=O)NC1=O)C2 (stereo not drawn)	92%

Tested on: not listed separately
Assay: Metabolic stability in human liver microsomes assessed as intrinsic clearance
Format: ADME, Microsome
Conditions: read-out: CLH

microsomal CLint	SMILES
21 µL/min/mg	N#Cc1ccc(N2CCC(c3ccc(OCCCCN4CCN(c5ccc6c(c5)C(=O)N(C5CCC(=O)NC5=O)C6=O)CC4)cc3)CC2)cc1C(F)(F)F (stereo not drawn)
5 µL/min/mg	N#Cc1ccc(N2CCC(c3ccc(OCCCN4CCN(c5ccc6c(c5)CN(C5CCC(=O)NC5=O)C6=O)CC4)cc3)CC2)cc1C(F)(F)F (stereo not drawn)

SMILES	microsomal CLint
COc1cc(N2CCN(CC3CCN(c4ccc(C5CCN(c6ccc(C#N)c(C(F)(F)F)c6)CC5)cc4)CC3)CC2)cc2c1C(=O)N(C1CCC(=O)NC1=O)C2 (stereo not drawn)	< 3 µL/min/mg

Tested on: not listed separately
Assay: Volume of distribution at steady state in CD-1 mouse at 1 mg/kg, po and 0.5 mg/kg, iv bolus
Format: ADME, organism-based
Conditions: in vivo

SMILES	Vdss
COc1cc(N2CCN(CC3CCN(c4ccc(C5CCN(c6ccc(C#N)c(C(F)(F)F)c6)CC5)cc4)CC3)CC2)cc2c1C(=O)N(C1CCC(=O)NC1=O)C2 (stereo not drawn)	2.4 L/kg

Tested on: not listed separately
Assay: Half life in CD-1 mouse at 1 mg/kg, po and 0.5 mg/kg, iv bolus
Format: ADME, organism-based
Conditions: in vivo

SMILES	half-life
COc1cc(N2CCN(CC3CCN(c4ccc(C5CCN(c6ccc(C#N)c(C(F)(F)F)c6)CC5)cc4)CC3)CC2)cc2c1C(=O)N(C1CCC(=O)NC1=O)C2 (stereo not drawn)	6.8 h

Tested on: not listed separately
Assay: Volume of distribution at steady state in Han Wistar rat at 1 mg/kg, po and 0.5 mg/kg, iv bolus
Format: ADME, organism-based
Conditions: in vivo

SMILES	Vdss
COc1cc(N2CCN(CC3CCN(c4ccc(C5CCN(c6ccc(C#N)c(C(F)(F)F)c6)CC5)cc4)CC3)CC2)cc2c1C(=O)N(C1CCC(=O)NC1=O)C2 (stereo not drawn)	7.8 L/kg

Tested on: not listed separately
Assay: Half life in Han Wistar rat at 1 mg/kg, po and 0.5 mg/kg, iv bolus
Format: ADME, organism-based
Conditions: in vivo

SMILES	half-life
COc1cc(N2CCN(CC3CCN(c4ccc(C5CCN(c6ccc(C#N)c(C(F)(F)F)c6)CC5)cc4)CC3)CC2)cc2c1C(=O)N(C1CCC(=O)NC1=O)C2 (stereo not drawn)	9.1 h

Tested on: not listed separately
Assay: Oral bioavailability in Han Wistar rat at 1 mg/kg
Format: ADME, organism-based
Conditions: in vivo

SMILES	bioavailability
COc1cc(N2CCN(CC3CCN(c4ccc(C5CCN(c6ccc(C#N)c(C(F)(F)F)c6)CC5)cc4)CC3)CC2)cc2c1C(=O)N(C1CCC(=O)NC1=O)C2 (stereo not drawn)	27%

Tested on: not listed separately
Assay: Volume of distribution at steady state in Beagle dog at 1 mg/kg, po and 0.5 mg/kg, iv infusion over 0.25 hrs
Format: ADME, organism-based, Canis lupus familiaris
Conditions: in vivo

SMILES	Vdss
COc1cc(N2CCN(CC3CCN(c4ccc(C5CCN(c6ccc(C#N)c(C(F)(F)F)c6)CC5)cc4)CC3)CC2)cc2c1C(=O)N(C1CCC(=O)NC1=O)C2 (stereo not drawn)	13 L/kg

Tested on: not listed separately
Assay: Half life in Beagle dog at 1 mg/kg, po and 0.5 mg/kg, iv infusion over 0.25 hrs
Format: ADME, organism-based, Canis lupus familiaris
Conditions: in vivo

SMILES	half-life
COc1cc(N2CCN(CC3CCN(c4ccc(C5CCN(c6ccc(C#N)c(C(F)(F)F)c6)CC5)cc4)CC3)CC2)cc2c1C(=O)N(C1CCC(=O)NC1=O)C2 (stereo not drawn)	21 h

Tested on: not listed separately
Assay: Oral bioavailability in Beagle dog at 1 mg/kg
Format: ADME, organism-based, Canis lupus familiaris
Conditions: in vivo

SMILES	bioavailability
COc1cc(N2CCN(CC3CCN(c4ccc(C5CCN(c6ccc(C#N)c(C(F)(F)F)c6)CC5)cc4)CC3)CC2)cc2c1C(=O)N(C1CCC(=O)NC1=O)C2 (stereo not drawn)	19%

Target: Protein cereblon/Androgen receptor (Homo sapiens, UniProt P10275+Q96SW2, L702H)
Assay: PROTAC activity at CRBN/AR L702H mutant (unknown origin) expressed in human LNCaP cells assessed as protein degradation measured after 24 hrs incubation by imaging IF assay
Format: cell-based
Conditions: not given

Chain of Protein cereblon/Androgen receptor (Homo sapiens, UniProt P10275+Q96SW2, L702H) (P10275 whole entry L702H, stated change not applied): as the sequence (P10275 whole entry) above, with L702H counted along it
Chain of Protein cereblon/Androgen receptor (Homo sapiens, UniProt P10275+Q96SW2, L702H) (Q96SW2 whole entry, stated change not applied): as the sequence (Q96SW2 whole entry) above

SMILES	DC50
COc1cc(N2CCN(CC3CCN(c4ccc(C5CCN(c6ccc(C#N)c(C(F)(F)F)c6)CC5)cc4)CC3)CC2)cc2c1C(=O)N(C1CCC(=O)NC1=O)C2 (stereo not drawn)	> 3000 nM

Tested on: not listed separately
Assay: Volume of distribution at steady state in CD-1 mouse at 1 mg/kg, po and 0.5 mg/kg, iv
Format: ADME, organism-based
Conditions: in vivo

SMILES	Vdss
COc1cc(N2CCN(CC3CCN(c4ccc(C5CCN(c6ccc(C#N)c(C(F)(F)F)c6)CC5)cc4)CC3)CC2)cc2c1C(=O)N(C1CCC(=O)NC1=O)C2 (stereo not drawn)	2.4 L/kg

Tested on: not listed separately
Assay: Half life in CD-1 mouse at 1 mg/kg, po and 0.5 mg/kg, iv
Format: ADME, organism-based
Conditions: in vivo

SMILES	half-life
COc1cc(N2CCN(CC3CCN(c4ccc(C5CCN(c6ccc(C#N)c(C(F)(F)F)c6)CC5)cc4)CC3)CC2)cc2c1C(=O)N(C1CCC(=O)NC1=O)C2 (stereo not drawn)	6.8 h

Tested on: not listed separately
Assay: Oral bioavailability in CD-1 mouse at 1 mg/kg
Format: ADME, organism-based
Conditions: in vivo

SMILES	bioavailability
COc1cc(N2CCN(CC3CCN(c4ccc(C5CCN(c6ccc(C#N)c(C(F)(F)F)c6)CC5)cc4)CC3)CC2)cc2c1C(=O)N(C1CCC(=O)NC1=O)C2 (stereo not drawn)	50%

Tested on: not listed separately
Assay: Permeability of compound in human Caco-2 cells
Format: ADME, cell-based
Conditions: not given

SMILES	Papp
COc1cc(N2CCN(CC3CCN(c4ccc(C5CCN(c6ccc(C#N)c(C(F)(F)F)c6)CC5)cc4)CC3)CC2)cc2c1C(=O)N(C1CCC(=O)NC1=O)C2 (stereo not drawn)	< 0.05 ×10⁻⁶ cm/s

Tested on: not listed separately
Assay: Aqueous solubility of compound at pH 7.4 buffer
Format: physicochemical
Conditions: not given

SMILES	solubility
COc1cc(N2CCN(CC3CCN(c4ccc(C5CCN(c6ccc(C#N)c(C(F)(F)F)c6)CC5)cc4)CC3)CC2)cc2c1C(=O)N(C1CCC(=O)NC1=O)C2 (stereo not drawn)	< 2 µM
